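Five compound concentrations were applied to cells in 96-well plates for 48 hours; endpoints were derived by simple linear interpolation of the resulting dose-response curve. TGI: total growth inhibition.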
Key:
Test in all cases: inhibition of tumour cell growth, NCI panel, 48 h
RXF 393 renal = test system: RXF 393 renal
RPMI-8226 leukemia = test system: RPMI-8226 leukemia
COLO 205 colon = test system: COLO 205 colon
UACC-62 melanoma = test system: UACC-62 melanoma
SNB-75 CNS = test system: SNB-75 CNS
CCRF-CEM leukemia = test system: CCRF-CEM leukemia
M19-MEL melanoma = test system: M19-MEL melanoma
NCI-H23 lung = test system: NCI-H23 lung
SN12C renal = test system: SN12C renal
IGROV1 ovarian = test system: IGROV1 ovarian
SK-MEL-5 melanoma = test system: SK-MEL-5 melanoma
TK-10 renal = test system: TK-10 renal
UO-31 renal = test system: UO-31 renal
786-0 renal = test system: 786-0 renal
NCI-H460 lung = test system: NCI-H460 lung
SW-620 colon = test system: SW-620 colon
M14 melanoma = test system: M14 melanoma
HL-60(TB) leukemia = test system: HL-60(TB) leukemia
SNB-19 CNS = test system: SNB-19 CNS
OVCAR-3 ovarian = test system: OVCAR-3 ovarian
HOP-92 NSCLC = test system: HOP-92 NSCLC
ACHN renal = test system: ACHN renal
SF-539 CNS = test system: SF-539 CNS
NCI-H226 lung = test system: NCI-H226 lung
NCI-H522 lung = test system: NCI-H522 lung
RXF-631 renal = test system: RXF-631 renal
MALME-3M melanoma = test system: MALME-3M melanoma
U251 CNS = test system: U251 CNS
HCT-116 colon = test system: HCT-116 colon
HOP-62 NSCLC = test system: HOP-62 NSCLC
SK-MEL-2 melanoma = test system: SK-MEL-2 melanoma
LXFL 529 NSCLC = test system: LXFL 529 NSCLC
EKVX NSCLC = test system: EKVX NSCLC
HCC-2998 colon = test system: HCC-2998 colon
SNB-78 CNS = test system: SNB-78 CNS
SK-MEL-28 melanoma = test system: SK-MEL-28 melanoma
KM20L2 colon = test system: KM20L2 colon
K-562 leukemia = test system: K-562 leukemia
OVCAR-5 ovarian = test system: OVCAR-5 ovarian
DMS 114 small cell lung = test system: DMS 114 small cell lung
KM12 colon = test system: KM12 colon
HOP-18 NSCLC = test system: HOP-18 NSCLC
XF 498 CNS = test system: XF 498 CNS
MOLT-4 leukemia = test system: MOLT-4 leukemia
SR leukemia = test system: SR leukemia
OVCAR-8 ovarian = test system: OVCAR-8 ovarian
SF-295 CNS = test system: SF-295 CNS
SF-268 CNS = test system: SF-268 CNS
HT29 colon = test system: HT29 colon
SK-OV-3 ovarian = test system: SK-OV-3 ovarian
HCT-15 colon = test system: HCT-15 colon
DMS 273 small cell lung = test system: DMS 273 small cell lung
LOX IMVI melanoma = test system: LOX IMVI melanoma
UACC-257 melanoma = test system: UACC-257 melanoma
A498 renal = test system: A498 renal
A549 NSCLC = test system: A549 NSCLC
CAKI-1 renal = test system: CAKI-1 renal
OVCAR-4 ovarian = test system: OVCAR-4 ovarian
DLD-1 colon = test system: DLD-1 colon

Measured: TGI

COc1cc2c(cc1OC)C(C#N)(Cc1ccccc1)N(C(=O)c1ccccc1)C=C2 (stereo not given)
62.9 µM: SK-MEL-5 melanoma
76.1 µM: RXF 393 renal
53.2 µM: DMS 114 small cell lung
87 µM: XF 498 CNS
not listed: A498 renal | A549 NSCLC | CAKI-1 renal | OVCAR-4 ovarian | DLD-1 colon
> 100 µM: all other assays above

C=C1CCC(OC(C)=O)C2(C)C(OC(C)=O)CC3OC3(C)C2C(OC(C)=O)C2C(C)C(=O)OC2C1Cl (stereo not given)
not listed: NCI-H522 lung
> 100 µM: all other assays above

CCOCc1cc(=O)c2cc3c(cc2o1)OC(C)(C)CC3
not listed: SK-MEL-28 melanoma
> 100 µM: all other assays above

From PubChem BioAssay (NCI)
